Test results published in US6914045B2, “Glycopeptide antibiotics” (Wyeth Holdings Corporation, priority 2001, dated 2005).
≈ marks a conversion by molar mass, not a printed value.

Key:
[1] = tested on: Staphylococcus aureus-SMITH (GC 4543); test: acute lethal infection in mice; format: in vivo; settings: acute lethal infection, female CD-1 mice, intraperitoneal challenge, intravenous 30 min. after infection, 7 day survival
Procedure, shortened: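 Female CD-1 mice (20±2 g) got an intraperitoneal bacterial challenge lethal to untreated controls within 24–48 hr. Compound was dosed intravenously 30 min after infection, five mice per dose. ED50 was calculated from 7-day survival pooled across 3 tests.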

[2] = tested on: Streptococcus sp.; test: in vitro antibacterial evaluation, MIC by broth dilution; format: cell-based; settings: broth dilution, 18 hours at 35° C.
Procedure, shortened: (§1)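 Broth dilution per NCCLS M7-A2 in Mueller-Hinton II medium, inoculum 5×10^5 CFU/mL, antibiotic range 64-0.06 μg/mL. MIC taken as lowest concentration inhibiting growth; Gram-positive panel includes recent clinical isolates resistant to methicillin, penicillin and/or vancomycin.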

[3] = tested on: Staphylococcus sp.; test: as above; format: cell-based; settings: broth dilution, 18 hours at 35° C.
Procedure, shortened: as §1

[4] = tested on: Escherichia coli; test: as above; format: cell-based; settings: 18 hours at 35° C.
Procedure, shortened: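 Broth dilution per NCCLS standard M7-A2 in Muller-Hinton II […], with an inoculum of 5×10^5 CFU/mL and antibiotic spanning 64-0.06 μg/mL. The MIC is the lowest concentration that inhibits growth of the organism.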

[5] = tested on: Enterococcus sp.; test: as above; format: cell-based; settings: broth dilution, 18 hours at 35° C.
Procedure, shortened: as §1

CC(C)CC(=O)OC1C(O)C(CO)OC(OC2C(CO)OC(Oc3ccc(CC4NC(=O)C(C(C)c5ccc(Cl)cc5)NC(=O)CNC(=O)C(CO)NC(=O)C(C(O)C5CNC(=N)N5C5OC(CO)C(O)C(O)C5O)NC(=O)C(C(O)C5CNC(=N)N5)NC4=O)cc3)C(O)C2O)C1O (stereo not drawn) [Example 262b, Cyclo[glycyl-4-chloro-β-methylphenylalanyl-O-[4-O-[3-O-(3-methylbutanoyl)hexopyranosyl]-hexopyranosyl]tyrosyl-3-(2-iminoimidazolidin-4-yl)seryl-3-(3-hexopyranosyl-2-iminoimidazolidin-4-yl)serylseryl]]
median effective dose (ED50), Staphylococcus aureus-SMITH (GC 4543) [1]: 1.22 mg/kg | MIC Streptococcus agalactiae (GC 4564) ([2]; strain GC 4564): 1 µg/mL (≈ 0.707 µM) | MIC Streptococcus pyogenes (ID-3187) ([2]; strain ID-3187): 1 µg/mL (≈ 0.707 µM) | MIC Coagulase Negative Staphylococcus (GC 4547) [3]: 2 µg/mL (≈ 1.41 µM) | MIC Coagulase Negative Staphylococcus (GC 4548) [3]: 1 µg/mL (≈ 0.707 µM) | MIC Coagulase Negative Staphylococcus (GC 4549) [3]: 1 µg/mL (≈ 0.707 µM) | MIC Coagulase Negative Staphylococcus (GC 4551) [3]: 2 µg/mL (≈ 1.41 µM) | MIC Staphylococcus aureus (ATCC 29213) [3]: 4 µg/mL (≈ 2.83 µM) | MIC Staphylococcus aureus (GC 1131) [3]: 4 µg/mL (≈ 2.83 µM) | MIC Staphylococcus aureus (GC 4541) [3]: 2 µg/mL (≈ 1.41 µM) | MIC Staphylococcus aureus (GC 4542) [3]: 2 µg/mL (≈ 1.41 µM) | MIC Staphylococcus aureus (GC 4544) [3]: 4 µg/mL (≈ 2.83 µM) | MIC Staphylococcus aureus (GC 4545) [3]: 2 µg/mL (≈ 1.41 µM) | MIC Staphylococcus aureus-SMITH (GC 4543) [3]: 1 µg/mL (≈ 0.707 µM) | MIC Staphylococcus haemolyticus (GC 4546) [3]: 2 µg/mL (≈ 1.41 µM) | MIC Staphylococcus aureus (ATCC 29213) ([3]; strain ATCC 29213): 4 µg/mL (≈ 2.83 µM) | MIC Staphylococcus aureus (GC 1131) ([3]; strain GC 1131): 4 µg/mL (≈ 2.83 µM) | MIC Staphylococcus aureus (GC 4541) ([3]; strain GC 4541): 2 µg/mL (≈ 1.41 µM) | MIC Staphylococcus aureus (GC 4542) ([3]; strain GC 4542): 2 µg/mL (≈ 1.41 µM) | MIC Staphylococcus aureus (GC 4544) ([3]; strain GC 4544): 4 µg/mL (≈ 2.83 µM) | MIC Staphylococcus aureus (GC 4545) ([3]; strain GC 4545): 2 µg/mL (≈ 1.41 µM) | MIC Staphylococcus haemolyticus (GC 4546) ([3]; strain GC 4546): 2 µg/mL (≈ 1.41 µM) | MIC Coagulase Negative Staphylococcus (GC 4547) ([3]; strain GC 4547): 2 µg/mL (≈ 1.41 µM) | MIC Coagulase Negative Staphylococcus (GC 4548) ([3]; strain GC 4548): 1 µg/mL (≈ 0.707 µM) | MIC Coagulase Negative Staphylococcus (GC 4549) ([3]; strain GC 4549): 1 µg/mL (≈ 0.707 µM) | MIC Coagulase Negative Staphylococcus (GC 4551) ([3]; strain GC 4551): 2 µg/mL (≈ 1.41 µM) | MIC Staphylococcus aureus-SMITH (GC 4543) ([3]; strain SMITH GC 4543): 1 µg/mL (≈ 0.707 µM) | MIC Escherichia coli (ATCC 25922) ([4]; Escherichia coli (ATCC 25922)): >64 µg/mL | MIC Escherichia coli (GC 4559) ([4]; Escherichia coli (GC 4559)): >64 µg/mL | MIC Escherichia coli (GC 4560) ([4]; Escherichia coli (GC 4560)): 1 µg/mL (≈ 0.707 µM) | MIC Enterococcus avium (GC 4558) ([5]; Enterococcus avium (GC 4558)): 16 µg/mL (≈ 11.3 µM) | MIC Enterococcus faecalis (ATCC 29212) ([5]; Enterococcus faecalis (ATCC 29212)): 32 µg/mL (≈ 22.6 µM) | MIC Enterococcus faecalis (GC 4553) ([5]; Enterococcus faecalis (GC 4553)): 32 µg/mL (≈ 22.6 µM) | MIC Enterococcus faecalis (GC 4554) ([5]; Enterococcus faecalis (GC 4554)): 32 µg/mL (≈ 22.6 µM) | MIC Enterococcus faecium (GC 2243) ([5]; Enterococcus faecium (GC 2243)): 16 µg/mL (≈ 11.3 µM) | MIC Enterococcus faecium (GC 4556) ([5]; Enterococcus faecium (GC 4556)): 16 µg/mL (≈ 11.3 µM) | MIC Enterococcus faecium (GC 4557) ([5]; Enterococcus faecium (GC 4557)): 2 µg/mL (≈ 1.41 µM) | MIC Enterococcus faecalis (ATCC 29212) ([5]; strain ATCC 29212): 32 µg/mL (≈ 22.6 µM) | MIC Enterococcus faecalis (GC 2242) ([5]; strain GC 2242): 16 µg/mL (≈ 11.3 µM) | MIC Enterococcus faecium (GC 2243) ([5]; strain GC 2243): 16 µg/mL (≈ 11.3 µM) | MIC Enterococcus faecalis (GC 4552) ([5]; strain GC 4552): 32 µg/mL (≈ 22.6 µM) | MIC Enterococcus faecalis (GC 4553) ([5]; strain GC 4553): 32 µg/mL (≈ 22.6 µM) | MIC Enterococcus faecalis (GC 4554) ([5]; strain GC 4554): 32 µg/mL (≈ 22.6 µM) | MIC Enterococcus faecium (GC 4556) ([5]; strain GC 4556): 16 µg/mL (≈ 11.3 µM) | MIC Enterococcus faecium (GC 4557) ([5]; strain GC 4557): 2 µg/mL (≈ 1.41 µM) | MIC Enterococcus avium (GC 4558) ([5]; strain GC 4558): 16 µg/mL (≈ 11.3 µM)
